Earlier results in paper PMC2837554 (ChemMedChem, 2010).

Experiments:
aggregated Aβ = settings: reported value

SMILES | Kd (Aβ aggregates) [nM] | Kd (aggregated Aβ) [nM]
CN(C)c1ccc(/C=C/C2=CC(=C/C=C3C=CC(=[N+](C)C)C=C3)/O[B-](F)(F)O2)cc1 [CRANAD-2] | 38 | 
Cc1ccc2c(c1)sc(-c1ccc(N(C)C)cc1)[n+]2C [ThT, Thioflavin T] |  | 2000
